In US20080221134A1, “8-ALKYNYLXANTHINES AND DERIVATIVES” (priority 2006, published 2008):
“Also recorded” adds a separate entry of the source.

Columns and labels:
[1] = tested on: rats; assay: Modified Irwin test (FOB, SAC, FU); assay type: in vivo, rat; settings: 0.01-30 mg/kg
Source text: In this study the compounds of the present invention were screened for basal behavioural, autonomic, neurological and toxicological side-effects in rats. For this purpose, a functional observational battery (FOB) in form of an Irwin test (Irwin S., Psychopharmacologia, 1968, 13, 222; 1968; Warburton D. M. Psychopharmacology, 2002, 163, 4; Haggerty G. C. et al., J. Amer. Coll. Toxicol., 1991, 10, 677; Mattsson J. L. et al., J. Amer. Coll. Toxicol., 1996, 15, 239, all references are herein incorporated by reference) modified and validated by the Test Facility was used. Each test compound was tested at eight doses (0.01, 0.03, 0.1, 0.3, 1.0, 3.0, 10.0 and 30.0 mg/kg). All compounds were dissolved in DMSO (administration volume 1 ml/kg). Each dose group included three animals. Two vehicle groups (DMSO and Labrasol) served as negative controls.
At the first day of each test week all test compound solutions necessary for the test (1-2 weeks) were prepared by means of one dilution series starting with the highest concentration. All test compounds dissolved in DMSO were administered in a volume of 1 ml/kg. DMSO-containing solutions were stored at −18° C. All solutions were melted for administration at room temperature 16-20 hours before the start of the test.
Study design and time schedule:
4-7 days: Acclimatization and handling of the animals 1 day: Test day with • (a) Four repeated functional observational battery (FOB): 30 min, 60 min, 120 min, 180 min following compound administration • (b) Short animal check (SAC): 300 min following compound administration 1 day: Follow-up observation (FU): • 24 h (1440 min) following compound administration.
In all experimental parts, an experienced ethologist used lists of predefined methods and behavioural parameters in order to rate the behaviour of the animal (see table 7 for functional observational battery (FOB), table 8 for short animal check (SAC) and table 9 for follow-up observation (FU).
A statistical evaluation of the data was performed that enabled an assessment of the compound's effects on each parameter. Dose-response relationships are not necessarily linear. It was not clear a priori whether the response would be dose-dependent or whether low, medium or high dose effects would occur. Therefore, the data were correlated against a set of different numeric models of theoretical dose-response curves. For this kind of evaluation the measurement times were not differentiated. An average value over all measurement times was calculated for each animal. This value was taken as one measurement within the observation vector. The complete set of parameters measured for the animal (each one averaged over time) formed the observation vector. Each dose was then represented by three observation vectors (3 animals per dose). The effects of all doses were compared with vehicle (DMSO) as the observation vectors for the zero dose. A common pool of 24 animals for the zero dose was used for all compounds to be tested. For each test compound the obtained values for each parameter together with values from the pool of vehicle-treated (DMSO) animals were then correlated with theoretical dose-response models (analysis profiles). Since 8 doses were be used, there were 8 models, each assuming that the maximum compound effect occurred at one of these doses. Effects of other doses were assumed to be attenuated with a linearly descending slope of the theoretical curve. Correlation values and statistical significance of regression were then calculated. An error probability of p<0.05 (two-tailed testing) was taken as significance level. Non-significant regressions were neglected. In consequence, each parameter was assessed as not affected or affected by the compound in a dose-response relationship according to type 1 (low dose effect) up to type 8 (high dose effect). Dose response is maximal for the effect with the greatest absolute correlation coefficient. […]

[2] = tested on: haloperidol induced model of Parkinson's Disease; assay: Haloperidol induced model of Parkinson's Disease; settings: in vivo

Row | Structure (SMILES) | activity in the Irwin Test (hyperlocomotion) [1] | effect in haloperidol induced model of Parkinson's Disease [2]
1 | C#CCn1c(=O)c2c(nc(C#Cc3ccc(OC)c(OC)c3)n2C)n(CCCO)c1=O [test compound 2, 3-(3-hydroxypropyl)-8-(3,4-dimethoxyphenylethynyl)-7-methyl-1-prop-2-ynyl-3,7-dihydropurine-2,6-dione] | potent hyperlocomotion | –
2 | C#CCn1c(=O)c2c(nc(C#Cc3ccc(OC)c(OC)c3)n2C)n(CC)c1=O [test compound 1, 3-ethyl-8-(3,4-dimethoxyphenylethynyl)-7-methyl-1-prop-2-ynyl-3,7-dihydropurine-2,6-dione] | potent hyperlocomotion | effective; also recorded: significant effects
